System: B16 murine cells
Assay: Melanin content of B16 murine cells by spectrophotometry (pigmenting activity in vitro)
Format: cell-based
Conditions: B16 cells treated 72 h
Description: Protocol: The melanin content of B16 murine cells is determined by spectrophotometry.
The cells are seeded in 10-cm Petri dishes at a density of 1×10^6 per dish and are treated every 24 hours for 72 hours with the specified dose of purified lichenic substance, dissolved in DMSO. […] After treatment, the cells are washed twice with PBS and recovered by treatment with trypsin. The number of cells recovered is estimated by counting using a haemocytometer. One fraction is used for determining the melanin content and a second fraction for the concentration of protein. The melanin content is determined from the absorbance at 405 nm (VersaMax Microplate Reader, Molecular Devices, USA) of the cellular solution after solubilization of the melanin with 1M sodium hydroxide, for 15 min at 80° C. The protein concentration is determined according to the protocol of the “DC Protein Assay” kit developed by Bio-Rad Laboratories, USA. For each sample treated, the melanin content is referred to the amount of protein and expressed as percentage relative to the control situation (DMSO solution only). Each measurement is performed in triplicate and each experiment is carried out independently for a minimum of 3 times.
The molecules tested, with their concentrations expressed in μM, are shown on the abscissa.
On the ordinate, the melanin content is expressed as percentage relative to the control (DMSO alone=concentration of 0.1%).

| Structure (SMILES) | pro-pigmenting effect (% of pigmentation) (5 μM, relative to DMSO control) [%] | pigmentation relative to the control (melanin content) (0.5 μM, control DMSO 0.1%) [%] | depigmentation (0.5 μM, relative to DMSO control) [%] |
| --- | --- | --- | --- |
| CCCCCCCCCCCCC[C@H]1OC(=O)C(C)=C1C(=O)O [lichesterinic acid, (+)-Lichesterinic acid] | 26 | – | – |
| C=C1C(=O)O[C@H](CCCCCCCCCCCCC)[C@H]1C(=O)O [protolichesterinic acid, (+)-Protolichesterinic acid] | – | 72 | 28 |
